What was measured:
Magnaporthe grisea = assay: whole plant or invertebrate; assay type: in vivo; details: Blast on rice; control value class
Alternaia brassicicola = assay: Test Example C: Alternaria sooty spot on cabbage; assay type: in vivo; details: Alternaria sooty spot on cabbage; control value class
Description: Seeds of a test plant (cabbage variety: Shikidori) were planted and cultivated until the cotyledons extended.
<Control Value> Control value=100{1−(n/3)}

Puccinia recondita = assay: Test Example E: Brown rust on wheat; assay type: in vivo; details: Brown rust on wheat; control value class
[1] = system: Blumeria graminis f. sp. hordei; assay: Test Example D: Powdery mildew on barley; details: Powdery mildew on barley; control value class
Phytophthora infestans = assay: whole plant or invertebrate; assay type: in vivo; details: Late blight on tomato; control value class
Plasmopara viticola = assay: Test Example G: Downy mildew on vine; details: Downy mildew on vine; 250 ppm spray, 7 to 10 days after inoculation
Description: Seeds of a test plant (grape variety: Neomuscat) were planted and cultivated until three to four first leaves appeared. In the test, the inventive compounds were dissolved into dimethyl sulfoxide-methanol mixture solution (volume ratio: 9/1), and the resultant solutions were diluted with well water to a concentration of 250 ppm to obtain the drug solutions. The drug solutions were sprayed to the test plant (2.5 ml/pot). After the drug solutions dried, a zoosporangia suspension (1-2×10^4 zoosporangia/ml) of Plasmopara viticola was inoculated to the plant by spraying. After the inoculation, the plant was kept in a mist chamber at room temperature of 20° C. for about 24 hours to promote the onset of disease. The degrees of disease development were investigated 7 to 10 days after the inoculation, and the effectiveness of the drug solutions was evaluated.
In Test Examples described above, the degrees of disease development were evaluated in increments of 0.05 from 0 (as no incidence of disease) to 3 (as the degree of disease development in an untreated plant group). Further, control values were calculated using the following equation based on the degree of disease development.
n=Degree of disease development in each treated group

[2] = system: Colletotrichum orbiculare; assay: Test Example H: Anthracnose on cucumber; details: Anthracnose on cucumber; 250 ppm spray, 6 to 10 days after inoculation
Botrytis cinerea = assay: Test Example B: Gray mold on tomato; details: Gray mold on tomato; control value class

CCn1c(-c2ccc(F)cc2Cl)c(C)ccc1=O [compound 279]
Test A control value (Magnaporthe grisea): L (50% or less control value)
Test C control value (Alternaia brassicicola): L (50% or less control value)
Test E control value (Puccinia recondita): L (50% or less control value)
Test D control value [1]: H (more than 50% control value)
Test F control value (Phytophthora infestans): L (50% or less control value)
Test G control value (Plasmopara viticola): L (50% or less control value)
Test H control value [2]: L (50% or less control value)
Test B control value (Botrytis cinerea): L (50% or less control value)

CCn1c(-c2ccc(F)cc2Cl)c(C)cc(Cl)c1=O [compound 280]
Test A control value (Magnaporthe grisea): L (50% or less control value)
Test C control value (Alternaia brassicicola): L (50% or less control value)
Test E control value (Puccinia recondita): H (more than 50% control value)
Test D control value [1]: H (more than 50% control value)
Test F control value (Phytophthora infestans): L (50% or less control value)
Test G control value (Plasmopara viticola): L (50% or less control value)
Test H control value [2]: H (more than 50% control value)
Test B control value (Botrytis cinerea): H (more than 50% control value)

CCn1c(-c2ccc(F)cc2Cl)c(C)cc(Br)c1=O [compound 281]
Test A control value (Magnaporthe grisea): L (50% or less control value)
Test C control value (Alternaia brassicicola): L (50% or less control value)
Test E control value (Puccinia recondita): H (more than 50% control value)
Test D control value [1]: H (more than 50% control value)
Test F control value (Phytophthora infestans): L (50% or less control value)
Test G control value (Plasmopara viticola): L (50% or less control value)
Test H control value [2]: H (more than 50% control value)
Test B control value (Botrytis cinerea): H (more than 50% control value)

CCCCCCC1=C(c2ccc(F)cc2Cl)N(CC)C(=O)CC1 [compound 282]
Test A control value (Magnaporthe grisea): L (50% or less control value)
Test C control value (Alternaia brassicicola): L (50% or less control value)
Test E control value (Puccinia recondita): L (50% or less control value)
Test D control value [1]: H (more than 50% control value)
Test F control value (Phytophthora infestans): L (50% or less control value)
Test G control value (Plasmopara viticola): L (50% or less control value)
Test H control value [2]: L (50% or less control value)
Test B control value (Botrytis cinerea): L (50% or less control value)

C#CC(O)c1cc(Cl)c(=O)n(CC)c1-c1c(F)cc(F)cc1F (stereo not drawn) [compound 283]
Test A control value (Magnaporthe grisea): L (50% or less control value)
Test C control value (Alternaia brassicicola): H (more than 50% control value)
Test E control value (Puccinia recondita): H (more than 50% control value)
Test D control value [1]: L (50% or less control value)
Test F control value (Phytophthora infestans): L (50% or less control value)
Test G control value (Plasmopara viticola): L (50% or less control value)
Test H control value [2]: H (more than 50% control value)
Test B control value (Botrytis cinerea): H (more than 50% control value)

C#CC(=O)c1cc(Cl)c(=O)n(CC)c1-c1c(F)cc(F)cc1F [compound 284]
Test A control value (Magnaporthe grisea): L (50% or less control value)
Test C control value (Alternaia brassicicola): H (more than 50% control value)
Test E control value (Puccinia recondita): H (more than 50% control value)
Test D control value [1]: H (more than 50% control value)
Test F control value (Phytophthora infestans): H (more than 50% control value)
Test G control value (Plasmopara viticola): H (more than 50% control value)
Test H control value [2]: H (more than 50% control value)
Test B control value (Botrytis cinerea): H (more than 50% control value)

C#CC(OC)c1cc(Cl)c(=O)n(CC)c1-c1c(F)cc(F)cc1F (stereo not drawn) [compound 285]
Test A control value (Magnaporthe grisea): H (more than 50% control value)
Test C control value (Alternaia brassicicola): H (more than 50% control value)
Test E control value (Puccinia recondita): H (more than 50% control value)
Test D control value [1]: H (more than 50% control value)
Test F control value (Phytophthora infestans): L (50% or less control value)
Test G control value (Plasmopara viticola): L (50% or less control value)
Test H control value [2]: H (more than 50% control value)
Test B control value (Botrytis cinerea): H (more than 50% control value)

C#CC(F)c1cc(Cl)c(=O)n(CC)c1-c1c(F)cc(F)cc1F (stereo not drawn) [compound 286]
Test A control value (Magnaporthe grisea): L (50% or less control value)
Test C control value (Alternaia brassicicola): H (more than 50% control value)
Test E control value (Puccinia recondita): H (more than 50% control value)
Test D control value [1]: L (50% or less control value)
Test F control value (Phytophthora infestans): L (50% or less control value)
Test G control value (Plasmopara viticola): L (50% or less control value)
Test H control value [2]: H (more than 50% control value)
Test B control value (Botrytis cinerea): H (more than 50% control value)

CCn1c(-c2ccc(OC)cc2)c(C=O)cc(Cl)c1=O [compound 287]
Test A control value (Magnaporthe grisea): L (50% or less control value)
Test C control value (Alternaia brassicicola): H (more than 50% control value)
Test E control value (Puccinia recondita): L (50% or less control value)
Test D control value [1]: L (50% or less control value)
Test F control value (Phytophthora infestans): L (50% or less control value)
Test G control value (Plasmopara viticola): L (50% or less control value)
Test H control value [2]: L (50% or less control value)
Test B control value (Botrytis cinerea): L (50% or less control value)

CCn1c(-c2ccc(C#N)cc2)c(C=O)cc(Cl)c1=O [compound 288]
Test A control value (Magnaporthe grisea): L (50% or less control value)
Test C control value (Alternaia brassicicola): H (more than 50% control value)
Test E control value (Puccinia recondita): L (50% or less control value)
Test D control value [1]: L (50% or less control value)
Test F control value (Phytophthora infestans): L (50% or less control value)
Test G control value (Plasmopara viticola): L (50% or less control value)
Test H control value [2]: L (50% or less control value)
Test B control value (Botrytis cinerea): L (50% or less control value)

CCn1c(-c2ccc(F)cc2)c(C=O)cc(Cl)c1=O [compound 290]
Test A control value (Magnaporthe grisea): L (50% or less control value)
Test C control value (Alternaia brassicicola): H (more than 50% control value)
Test E control value (Puccinia recondita): L (50% or less control value)
Test D control value [1]: L (50% or less control value)
Test F control value (Phytophthora infestans): H (more than 50% control value)
Test G control value (Plasmopara viticola): L (50% or less control value)
Test H control value [2]: L (50% or less control value)
Test B control value (Botrytis cinerea): L (50% or less control value)

CCCCCCc1ccc(=O)n(CC)c1-c1ccc(F)cc1Cl [compound 291]
Test A control value (Magnaporthe grisea): L (50% or less control value)
Test C control value (Alternaia brassicicola): L (50% or less control value)
Test E control value (Puccinia recondita): H (more than 50% control value)
Test D control value [1]: H (more than 50% control value)
Test F control value (Phytophthora infestans): L (50% or less control value)
Test G control value (Plasmopara viticola): L (50% or less control value)
Test H control value [2]: H (more than 50% control value)
Test B control value (Botrytis cinerea): L (50% or less control value)

CCCCCCc1cc(Cl)c(=O)n(CC)c1-c1ccc(F)cc1Cl [compound 292]
Test A control value (Magnaporthe grisea): L (50% or less control value)
Test C control value (Alternaia brassicicola): H (more than 50% control value)
Test E control value (Puccinia recondita): L (50% or less control value)
Test D control value [1]: H (more than 50% control value)
Test F control value (Phytophthora infestans): L (50% or less control value)
Test G control value (Plasmopara viticola): L (50% or less control value)
Test H control value [2]: L (50% or less control value)
Test B control value (Botrytis cinerea): H (more than 50% control value)

CCCCCCc1cc(Br)c(=O)n(CC)c1-c1ccc(F)cc1Cl [compound 293]
Test A control value (Magnaporthe grisea): L (50% or less control value)
Test C control value (Alternaia brassicicola): H (more than 50% control value)
Test E control value (Puccinia recondita): L (50% or less control value)
Test D control value [1]: H (more than 50% control value)
Test F control value (Phytophthora infestans): L (50% or less control value)
Test G control value (Plasmopara viticola): L (50% or less control value)
Test H control value [2]: L (50% or less control value)
Test B control value (Botrytis cinerea): L (50% or less control value)

CCn1c(-c2ccc(F)cc2Cl)c(C=O)cc(Cl)c1=O [compound 294]
Test A control value (Magnaporthe grisea): L (50% or less control value)
Test C control value (Alternaia brassicicola): H (more than 50% control value)
Test E control value (Puccinia recondita): H (more than 50% control value)
Test D control value [1]: L (50% or less control value)
Test F control value (Phytophthora infestans): L (50% or less control value)
Test G control value (Plasmopara viticola): H (more than 50% control value)
Test H control value [2]: L (50% or less control value)
Test B control value (Botrytis cinerea): H (more than 50% control value)
